# Test results published in ChEMBL document CHEMBL4715697, “Synthesis and biological activity of benzamide DNA minor groove binders” (2016).
# Assays:
# Format in all cases: functional
# Conditions in all cases: read-out: Activity
# [1] = system: HL-60(TB); experiment: Growth inhibition of human HL-60(TB) cells assessed as cell growth at 10 uM incubated for 48 hrs by sulforhodamine B assay relative to control
# [2] = system: K562; experiment: Growth inhibition of human K562 cells assessed as cell growth at 10 uM incubated for 48 hrs by sulforhodamine B assay relative to control
# [3] = system: MOLT-4; experiment: Growth inhibition of human MOLT-4 cells assessed as cell growth at 10 uM incubated for 48 hrs by sulforhodamine B assay relative to control
# [4] = system: A549; experiment: Growth inhibition of human A549/ATCC cells assessed as cell growth at 10 uM incubated for 48 hrs by sulforhodamine B assay relative to control
# [5] = system: EKVX; experiment: Growth inhibition of human EKVX cells assessed as cell growth at 10 uM incubated for 48 hrs by sulforhodamine B assay relative to control
# [6] = system: HOP-62; experiment: Growth inhibition of human HOP-62 cells assessed as cell growth at 10 uM incubated for 48 hrs by sulforhodamine B assay relative to control
# [7] = system: NCI-H226; experiment: Growth inhibition of human NCI-H226 cells assessed as cell growth at 10 uM incubated for 48 hrs by sulforhodamine B assay relative to control
# [8] = system: NCI-H23; experiment: Growth inhibition of human NCI-H23 cells assessed as cell growth at 10 uM incubated for 48 hrs by sulforhodamine B assay relative to control
# [9] = system: NCI-H322M; experiment: Growth inhibition of human NCI-H322M cells assessed as cell growth at 10 uM incubated for 48 hrs by sulforhodamine B assay relative to control
# [10] = system: NCI-H522; experiment: Growth inhibition of human NCI-H522 cells assessed as cell growth at 10 uM incubated for 48 hrs by sulforhodamine B assay relative to control
# [11] = system: HCC 2998; experiment: Growth inhibition of human HCC 2998 cells assessed as cell growth at 10 uM incubated for 48 hrs by sulforhodamine B assay relative to control
# [12] = system: HCT-116; experiment: Growth inhibition of human HCT-116 cells assessed as cell growth at 10 uM incubated for 48 hrs by sulforhodamine B assay relative to control
# [13] = system: HCT-15; experiment: Growth inhibition of human HCT-15 cells assessed as cell growth at 10 uM incubated for 48 hrs by sulforhodamine B assay relative to control
# [14] = system: HT-29; experiment: Growth inhibition of human HT-29 cells assessed as cell growth at 10 uM incubated for 48 hrs by sulforhodamine B assay relative to control
# [15] = system: KM12; experiment: Growth inhibition of human KM12 cells assessed as cell growth at 10 uM incubated for 48 hrs by sulforhodamine B assay relative to control
# [16] = system: SW-620; experiment: Growth inhibition of human SW-620 cells assessed as cell growth at 10 uM incubated for 48 hrs by sulforhodamine B assay relative to control
# [17] = system: SF-268; experiment: Growth inhibition of human SF-268 cells assessed as cell growth at 10 uM incubated for 48 hrs by sulforhodamine B assay relative to control
# [18] = system: SF-539; experiment: Growth inhibition of human SF-539 cells assessed as cell growth at 10 uM incubated for 48 hrs by sulforhodamine B assay relative to control
# [19] = system: SNB-75; experiment: Growth inhibition of human SNB-75 cells assessed as cell growth at 10 uM incubated for 48 hrs by sulforhodamine B assay relative to control
# [20] = system: LOX IMVI; experiment: Growth inhibition of human LOX IMVI cells assessed as cell growth at 10 uM incubated for 48 hrs by sulforhodamine B assay relative to control
# [21] = system: M14; experiment: Growth inhibition of human M14 cells assessed as cell growth at 10 uM incubated for 48 hrs by sulforhodamine B assay relative to control
# [22] = system: SK-MEL-5; experiment: Growth inhibition of human SK-MEL-5 cells assessed as cell growth at 10 uM incubated for 48 hrs by sulforhodamine B assay relative to control
# [23] = system: UACC-257; experiment: Growth inhibition of human UACC-257 cells assessed as cell growth at 10 uM incubated for 48 hrs by sulforhodamine B assay relative to control
# [24] = system: IGROV-1; experiment: Growth inhibition of human IGROV-1 cells assessed as cell growth at 10 uM incubated for 48 hrs by sulforhodamine B assay relative to control
# [25] = system: OVCAR-3; experiment: Growth inhibition of human OVCAR-3 cells assessed as cell growth at 10 uM incubated for 48 hrs by sulforhodamine B assay relative to control
# [26] = system: OVCAR-5; experiment: Growth inhibition of human OVCAR-5 cells assessed as cell growth at 10 uM incubated for 48 hrs by sulforhodamine B assay relative to control
# [27] = system: OVCAR-8; experiment: Growth inhibition of human OVCAR-8 cells assessed as cell growth at 10 uM incubated for 48 hrs by sulforhodamine B assay relative to control
# [28] = system: NCI/ADR-RES; experiment: Growth inhibition of human NCI/ADR-RES cells assessed as cell growth at 10 uM incubated for 48 hrs by sulforhodamine B assay relative to control
# [29] = system: SK-OV-3; experiment: Growth inhibition of human SK-OV-3 cells assessed as cell growth at 10 uM incubated for 48 hrs by sulforhodamine B assay relative to control
# [30] = system: 786-0; experiment: Growth inhibition of human 786-0 cells assessed as cell growth at 10 uM incubated for 48 hrs by sulforhodamine B assay relative to control
# [31] = system: CAKI-1; experiment: Growth inhibition of human CAKI-1 cells assessed as cell growth at 10 uM incubated for 48 hrs by sulforhodamine B assay relative to control
# [32] = system: TK-10; experiment: Growth inhibition of human TK-10 cells assessed as cell growth at 10 uM incubated for 48 hrs by sulforhodamine B assay relative to control
# [33] = system: UO-31; experiment: Growth inhibition of human UO-31 cells assessed as cell growth at 10 uM incubated for 48 hrs by sulforhodamine B assay relative to control
# [34] = system: PC-3; experiment: Growth inhibition of human PC-3 cells assessed as cell growth at 10 uM incubated for 48 hrs by sulforhodamine B assay relative to control
# [35] = system: DU-145; experiment: Growth inhibition of human DU-145 cells assessed as cell growth at 10 uM incubated for 48 hrs by sulforhodamine B assay relative to control
# [36] = system: MCF7; experiment: Growth inhibition of human MCF7 cells assessed as cell growth at 10 uM incubated for 48 hrs by sulforhodamine B assay relative to control
# [37] = system: MDA-MB-231; experiment: Growth inhibition of human MDA-MB-231 cells assessed as cell growth at 10 uM incubated for 48 hrs by sulforhodamine B assay relative to control
# [38] = system: BT-549; experiment: Growth inhibition of human BT-549 cells assessed as cell growth at 10 uM incubated for 48 hrs by sulforhodamine B assay relative to control
# [39] = system: T47D; experiment: Growth inhibition of human T47D cells assessed as cell growth at 10 uM incubated for 48 hrs by sulforhodamine B assay relative to control
# [40] = system: MDA-MB-468; experiment: Growth inhibition of human MDA-MB-468 cells assessed as cell growth at 10 uM incubated for 48 hrs by sulforhodamine B assay relative to control
Structure (SMILES),growth at 10 µM [1] [%],growth at 10 µM [2] [%],growth at 10 µM [3] [%],growth at 10 µM [4] [%],growth at 10 µM [5] [%],growth at 10 µM [6] [%],growth at 10 µM [7] [%],growth at 10 µM [8] [%],growth at 10 µM [9] [%],growth at 10 µM [10] [%],growth at 10 µM [11] [%],growth at 10 µM [12] [%],growth at 10 µM [13] [%],growth at 10 µM [14] [%],growth at 10 µM [15] [%],growth at 10 µM [16] [%],growth at 10 µM [17] [%],growth at 10 µM [18] [%],growth at 10 µM [19] [%],growth at 10 µM [20] [%],further results
CC(=O)Nc1cc(CO)cc(NC(=O)c2ccc(C(=O)NCCCN3CCOCC3)cc2)c1,107,103,94.4,107,115,105,95.6,100,105,91.1,100,105,103,115,113,102,109,97.3,90.2,101,growth at 10 µM [21]: 98.9%; growth at 10 µM [22]: 102%; growth at 10 µM [23]: 103%; growth at 10 µM [24]: 110%; growth at 10 µM [25]: 118%; growth at 10 µM [26]: 103%; growth at 10 µM [27]: 103%; growth at 10 µM [28]: 113%; growth at 10 µM [29]: 106%; growth at 10 µM [30]: 101%; growth at 10 µM [31]: 109%; growth at 10 µM [32]: 91.9%; growth at 10 µM [33]: 100%; growth at 10 µM [34]: 100%; growth at 10 µM [35]: 113%; growth at 10 µM [36]: 102%; growth at 10 µM [37]: 103%; growth at 10 µM [38]: 94.2%; growth at 10 µM [39]: 108%; growth at 10 µM [40]: 96%
CC(=O)Nc1cc(CO)cc(NC(=O)c2ccc(C(=O)Nc3cc(CO)cc(NC(C)=O)c3)cc2)c1,107,106,101,108,115,102,94.9,103,103,94.1,99.6,98.6,104,107,136,114,115,99.6,102,96.8,growth at 10 µM [21]: 104%; growth at 10 µM [22]: 104%; growth at 10 µM [23]: 106%; growth at 10 µM [24]: 103%; growth at 10 µM [25]: 139%; growth at 10 µM [26]: 106%; growth at 10 µM [27]: 107%; growth at 10 µM [28]: 110%; growth at 10 µM [29]: 101%; growth at 10 µM [30]: 103%; growth at 10 µM [31]: 117%; growth at 10 µM [32]: 103%; growth at 10 µM [33]: 97.1%; growth at 10 µM [34]: 97.9%; growth at 10 µM [35]: 127%; growth at 10 µM [36]: 97.4%; growth at 10 µM [37]: 104%; growth at 10 µM [38]: 99.5%; growth at 10 µM [39]: 92%; growth at 10 µM [40]: 101%
